Like-named read-outs stand apart in the source and are kept apart here.
Legend:
[1] = tested on: primary culture of human coronary artery smooth muscle cells; assay: Affymetrix U133Av2 microarray gene expression; type: cell-based; conditions: 100 nM, 30 hr, ratio to no-drug control; for FC angiopoietin 1 (NM_001146) / FC coagulation factor II (thrombin) receptor-like 1 (NM_005242) / FC endothelin receptor type B (NM_000115) / FC fibroblast growth factor 9 (glia-activating factor) (NM_002010) / FC fibroblast growth factor receptor 3 (achondroplasia, thanatophoric dwarfism) (NM_000142) / FC insulin-like growth factor 1 (somatomedin C) (NM_000618) / FC matrix metalloproteinase 14 (membrane-inserted) (NM_004995) / FC natriuretic peptide precursor B (NM_002521) / FC oxytocin receptor (NM_000916) / FC phospholamban (NM_002667) / FC prostaglandin-endoperoxide synthase 1 (prostaglandin G/H synthase and cyclooxygenase) (NM_000962) / FC thrombomodulin (NM_000361) / FC thrombospondin 1 (AI812030) / FC transforming growth factor, beta 2 (NM_003238) / FC transforming growth factor, beta 3 (J03241): Table 4
Description: Microarray: […] While the yield of total RNA was low ([…] total per sample), the RNAs were intact as judged by Agilent 2100 analysis. One μg of total RNA from each sample was used to prepare biotin-labeled cRNA target using standard Affymetrix protocols. Prepared cRNA targets were of good quality and quantity. The Affymetrix Human chip U133Av2 was used (22,000+ probe sets) and 10 μg cRNA target was applied to each array. […] Scanned images were loaded into the Rosetta Resolver 4.0 database and processed using the Resolver Affymetrix error model. Within Resolver the drug treated sample replicates (n=3) were informatically combined and ratios constructed relative to the combined control (no addition of drug) samples. The Resolver Affymetrix error model was used to develop each ratio and calculate a p-value. The Resolver error model is robust and includes reporter level, background and error values in the calculation of statistical significance. A combination of hierarchical clustering, gene ontology analysis and pathway mapping were used to assess the function of the regulated genes.

[2] = tested on: human coronary artery smooth muscle cells; assay: 3H-thymidine incorporation (DNA synthesis / cell proliferation); type: cell-based
Description: One day after plating, the cells were treated with test agents for 24 hours and then labeled with 0.3 μCi/well of ^3H-thymidine for another 48 hours. Each well was washed with 0.3 ml/well of PBS, incubated with 0.2 ml/well of ice-cold 10% trichloroacetic acid (hereinafter “TCA”) for 30 minutes at 4° C., and then followed by another wash of 0.2 ml/well of TCA. Samples were dissolved in MICROSCINT™ 20 before counting. Data shown are mean ± the standard deviation (n=4).
Thymidine incorporation: Cells were plated at 1×10^6 cells/ml, 200 μl/well into 96-well plates (Costar). One day after plating, the cells were treated with test agents for 24 hr and then labeled with 0.3 μCi/well of ^3H-thymidine for another 48 hr. Each well was washed with 0.3 ml/well of PBS, incubated with 0.2 ml/well of ice-cold 10% trichloroacetic acid (TCA) for 30 min at 4° C., and then followed by another wash of 0.2 ml/well of TCA. Samples were dissolved in MICROSCINT™ 20 (Packard) before counting.

[3] = tested on: WT1; assay: Real-time RT-PCR, WT1 mRNA expression in smooth muscle cells; type: cell-based; conditions: Homo sapiens, normalized to GAPDH, FIG. 7, read-out: EC50 on WT1 mRNA expression (up-regulation)
Description: (§1) Primers and probes for Real-time Reverse Transcription-PCR: For quantitative PCR (qPCR), TaqMan™ probes that were 5′ labeled with the reporter 6-carboxyfluorescein (FAM) and 3′ labeled with the quencher tetramethylrhodamine (TAMRA) were used. The primer and probe sets were obtained from the Assay-on-Demand collection (Applied Biosytsems).
(§2) Real-time Reverse Transcription-PCR: PCR was performed with a 7900HT sequence detector (Applied Biosytsems). Each sample has a final volume of 25 μl containing 50 ng of cDNA, […] each of the forward and reverse PCR primers and […] of the TaqMan™ probe. Temperature conditions consisted of a step of 5 minutes at 95° C., followed by 40 cycles of 60° C. for 1 minute and 95° C. for 15 seconds. Data was collected during each extension phase of the PCR reaction and analyzed with the SDS software package (Applied Biosystems). Threshold cycles were determined for each gene. The expression level of target gene of interest was given as relative expression normalized against glyceraldehyde-3-phosphate dehydrogenase (GAPDH).

[4] = tested on: VDR; conditions: 0.1 μM, CASMC in growth medium, not all cells responded, FIG. 2
[5] = tested on: IGF1; assay: Real-time RT-PCR, IGF1 mRNA expression in smooth muscle cells; type: cell-based; conditions: Homo sapiens, normalized to GAPDH, FIG. 7, read-out: EC50 on IGF1 mRNA expression (up-regulation)
Description: as §1, §2

[6] = tested on: plasminogen activator inhibitor type-1 (PAI-1); assay: SDS-PAGE and Western blot of PAI-1 in CASMC; type: cell-based, human; conditions: Western blot, FIG. 6
Description: SDS-PAGE and Western Blot Analysis: Cells (1×10^6 cells per sample) pretreated with or without test agents were solubilized in 50 μl of SDS-PAGE sample buffer (Sigma, St. Louis, Mo.), and the protein content in each sample was determined by the Pierce (Rockford, Ill.) BCA protein assay. Samples were resolved by SDS-PAGE using a 4-12% NuPAGE gel (Invitrogen, Carlsbad, Calif.), and proteins were electrophoretically transferred to polyvinylidene fluoride (hereinafter “PVDF”) membrane for Western blotting. The membrane was blotted for 1 hour at 25° C. with 5% nonfat dry milk in PBS-T and then incubated with a mouse anti-PAI-1 monoclonal antibody (1000-fold dilution, Santa Cruz Biotechnology, Santa Cruz, Calif.) in PBS-T overnight at 4° C. The membrane was washed with PBS-T and incubated with a horseradish peroxidase-labeled anti-mouse antibody for 1 hour at 25° C. The membrane was then incubated with detection reagent (SuperSignal WestPico, Pierce, Rockford, Ill.). Specific bands were visualized by exposing the paper to Kodak BioMax films.

[7] = tested on: TGFβ3; assay: Real-time RT-PCR, TGFβ3 mRNA expression in smooth muscle cells; type: cell-based; conditions: Homo sapiens, normalized to GAPDH, FIG. 7, read-out: EC50 on TGFβ3 mRNA expression (up-regulation)
Description: as §1, §2

C=C1/C(=C\C=C2/CCC[C@]3(C)[C@@H]([C@H](C)CCCC(C)(C)O)CC[C@@H]23)C[C@@H](O)C[C@@H]1O [calcitriol, 1-alpha-25-dihydroxyvitamin D3]
FC CD1D antigen, d polypeptide (205789_at) [1]: 6.95
FC CDK5 regulatory subunit associated protein 2 (220935_s_at) [1]: 2.67
FC Kruppel-like factor 4 (gut) (220266_s_at) [1]: 2.67
FC PMS2 postmeiotic segregation increased 2 (S. cerevisiae) (209805_at) [1]: 2.85
FC Wilms tumor 1 (206067_s_at) [1]: 3.55
FC Wilms tumor 1 (216953_s_at) [1]: 6.63
FC Wilms tumor associated protein (206954_at) [1]: 2.96
FC basic helix-loop-helix domain containing, class B, 3 (221530_s_at) [1]: −2.00
FC cholecystokinin B receptor (210381_s_at) [1]: −1.65
FC cyclin F (204827_s_at) [1]: −1.09
FC cysteine and glycine-rich protein 2 (207030_s_at) [1]: −2.13
FC cysteine and glycine-rich protein 2 (211126_s_at) [1]: −2.21
FC ecotropic viral integration site 2A (204774_at) [1]: −1.77
FC fibroblast growth factor 9 (glia-activating factor) (206404_at) [1]: 2.07
FC insulin-like growth factor 1 (somatomedin C) (209540_at) [1]: 4.39
FC insulin-like growth factor 1 (somatomedin C) (209541_at) [1]: 2.78
FC insulin-like growth factor 1 (somatomedin C) (209542_x_at) [1]: 3.23
FC insulin-like growth factor 1 (somatomedin C) (211577_s_at) [1]: 3.47
FC mitogen-activated protein kinase 13 (210058_at) [1]: 2.27
FC mitogen-activated protein kinase 13 (210059_s_at) [1]: 3.27
FC myosin heavy polypeptide 10, non-muscle (213067_at) [1]: −2.03
FC putative lymphocyte G0/G1 switch gene (213524_s_at) [1]: 3.69
FC retinoblastoma-like 2 (p130) (212332_at) [1]: 1.10
FC suppressor of cytokine signaling 2 (203372_s_at) [1]: −2.29
FC suppressor of cytokine signaling 2 (203373_at) [1]: −2.50
FC tetraspan 1 (209114_at) [1]: −4.34
FC transforming growth factor, beta 2 (209909_s_at) [1]: 2.91
FC transforming growth factor, beta 2 (220407_s_at) [1]: 2.97
FC transforming growth factor, beta 3 (209747_at) [1]: 2.83
FC angiopoietin 1 (NM_001146) [1]: 2.0
FC coagulation factor II (thrombin) receptor-like 1 (NM_005242) [1]: −1.7
FC endothelin receptor type B (NM_000115) [1]: 3.4
FC fibroblast growth factor 9 (glia-activating factor) (NM_002010) [1]: 2.1
FC fibroblast growth factor receptor 3 (achondroplasia, thanatophoric dwarfism) (NM_000142) [1]: 1.9
FC insulin-like growth factor 1 (somatomedin C) (NM_000618) [1]: 2.8
FC matrix metalloproteinase 14 (membrane-inserted) (NM_004995) [1]: 2.1
FC natriuretic peptide precursor B (NM_002521) [1]: −2.0
FC oxytocin receptor (NM_000916) [1]: −3.0
FC phospholamban (NM_002667) [1]: −2.6
FC prostaglandin-endoperoxide synthase 1 (prostaglandin G/H synthase and cyclooxygenase) (NM_000962) [1]: 2.2
FC thrombomodulin (NM_000361) [1]: 3.3
FC thrombospondin 1 (AI812030) [1]: −3.2
FC transforming growth factor, beta 2 (NM_003238) [1]: 2.9
FC transforming growth factor, beta 3 (J03241) [1]: 2.9

CC(=O)O[C@H]1C(=O)[C@@]2(C)[C@H]([C@H](OC(=O)c3ccccc3)[C@]3(O)C[C@H](OC(=O)[C@H](O)[C@@H](NC(=O)c4ccccc4)c4ccccc4)C(C)=C1C3(C)C)[C@]1(OC(C)=O)CO[C@@H]1C[C@@H]2O [taxol]
effect on DNA synthesis ([3H]-thymidine incorporation) ([2]; Example 1, even at 0.01 nM, FIG. 3): severely impacted DNA synthesis

C[C@H](/C=C/[C@H](C)C(C)(C)O)[C@H]1CC[C@H]2/C(=C/C=C3C[C@@H](O)C[C@H](O)C3)CCC[C@]12C [paricalcitol, 19-nor-1α,3β,25-trihydroxy-9,10-secoergosta-5(Z); 7(E),22(E)-triene]
FC CD1D antigen, d polypeptide (205789_at) [1]: 5.38
FC CDK5 regulatory subunit associated protein 2 (220935_s_at) [1]: 2.91
FC Kruppel-like factor 4 (gut) (220266_s_at) [1]: 2.37
FC PMS2 postmeiotic segregation increased 2 (S. cerevisiae) (209805_at) [1]: 2.18
FC Wilms tumor 1 (206067_s_at) [1]: 3.32
FC Wilms tumor 1 (216953_s_at) [1]: 4.64
FC Wilms tumor associated protein (206954_at) [1]: 2.72
FC basic helix-loop-helix domain containing, class B, 3 (221530_s_at) [1]: −1.80
FC cholecystokinin B receptor (210381_s_at) [1]: −3.04
FC cyclin F (204827_s_at) [1]: −2.75
FC cysteine and glycine-rich protein 2 (207030_s_at) [1]: −2.18
FC cysteine and glycine-rich protein 2 (211126_s_at) [1]: −2.33
FC ecotropic viral integration site 2A (204774_at) [1]: −2.49
FC fibroblast growth factor 9 (glia-activating factor) (206404_at) [1]: 1.88
FC insulin-like growth factor 1 (somatomedin C) (209540_at) [1]: 4.89
FC insulin-like growth factor 1 (somatomedin C) (209541_at) [1]: 2.63
FC insulin-like growth factor 1 (somatomedin C) (209542_x_at) [1]: 3.24
FC insulin-like growth factor 1 (somatomedin C) (211577_s_at) [1]: 3.43
FC mitogen-activated protein kinase 13 (210058_at) [1]: 2.40
FC mitogen-activated protein kinase 13 (210059_s_at) [1]: 3.26
FC myosin heavy polypeptide 10, non-muscle (213067_at) [1]: −1.80
FC putative lymphocyte G0/G1 switch gene (213524_s_at) [1]: 3.46
FC retinoblastoma-like 2 (p130) (212332_at) [1]: −1.37
FC suppressor of cytokine signaling 2 (203372_s_at) [1]: −2.70
FC suppressor of cytokine signaling 2 (203373_at) [1]: −2.39
FC tetraspan 1 (209114_at) [1]: −1.79
FC transforming growth factor, beta 2 (209909_s_at) [1]: 2.48
FC transforming growth factor, beta 2 (220407_s_at) [1]: 1.88
FC transforming growth factor, beta 3 (209747_at) [1]: 2.80
FC angiopoietin 1 (NM_001146) [1]: 1.7
FC coagulation factor II (thrombin) receptor-like 1 (NM_005242) [1]: −2.1
FC endothelin receptor type B (NM_000115) [1]: 2.3
FC fibroblast growth factor 9 (glia-activating factor) (NM_002010) [1]: 1.9
FC fibroblast growth factor receptor 3 (achondroplasia, thanatophoric dwarfism) (NM_000142) [1]: 3.4
FC insulin-like growth factor 1 (somatomedin C) (NM_000618) [1]: 2.5
FC matrix metalloproteinase 14 (membrane-inserted) (NM_004995) [1]: 1.1
FC natriuretic peptide precursor B (NM_002521) [1]: −2.5
FC oxytocin receptor (NM_000916) [1]: −2.6
FC phospholamban (NM_002667) [1]: −2.4
FC prostaglandin-endoperoxide synthase 1 (prostaglandin G/H synthase and cyclooxygenase) (NM_000962) [1]: 2.0
FC thrombomodulin (NM_000361) [1]: 3.0
FC thrombospondin 1 (AI812030) [1]: −2.7
FC transforming growth factor, beta 2 (NM_003238) [1]: 2.5
FC transforming growth factor, beta 3 (J03241) [1]: 2.9
EC50 [3]: 29700 pM
VDR translocation (confocal microscopy) [4]: VDR translocated into the nucleus
EC50 ([2]; Homo sapiens, Example 1, CASMC, FIG. 4, read-out: EC50 inhibiting DNA synthesis ([3H]-thymidine incorporation)): 44 ± 4 pM
EC50 ([2]; Homo sapiens, Example 2, FIG. 8, read-out: EC50 inhibition of 3H-thymidine incorporation): 200 pM
inhibition at 0.01 µM ([2]; Homo sapiens, Example 2, at 10 nM, compared to cells in growth medium): 46%
EC50 [5]: 200 pM
potency in reducing PAI-1 level / inhibiting PAI-1 expression [6]: as potent as calcitriol
EC50 [7]: 10600 pM

— patent US20070134286A1, “Methods for reducing intimal hyperplasia, smooth muscle cell proliferation and restenosis in mammals” (priority 2004, published 2007)
